{
  "source": "patent US20230210866A1",
  "about": "(priority 2020, published 2023)",
  "key": {"SARS-CoV-2 virus [1]": {"system": "SARS-CoV-2 virus", "assay": "Reconstituted human respiratory epithelium of nasal origin (MucilAir HAE) infected with SARS-CoV-2, viral genome RT-PCR", "format": "cell-based", "conditions": "alone or combined", "description": "In order to produce the infections, we have also used a reconstituted human epithelium model (HAE MucilAir, Epithelix), obtained from primary human cells obtained by nasal biopsies, cultivated at the air-liquid interface with a specific culture medium in Costar Transwell inserts (Corning, NY, USA). For the infection experiments, the apical poles were gently washed twice using the medium OptiMEM (Gibco, ThermoFisher Scientific), then infected with 150 µl of virus dilution in medium OptiMEM, with a multiplicity of infection (MOI) of 0.1. After incubation for one hour at 37° C., 5% CO2, the viral suspension was withdrawn.\nA quantitative “one-step” PCR was performed using the StepOnePlus Real Time PCR System kit (Applied Biosystems), with the reagent EXPRESS One-Step Superscript qRT-PCR (Invitrogen), in a reaction volume of 20 µl containing 10 µl of supermix Express qPCR (2×), 1 µl of each primer (10 µM), […], 0.4 µl Rox dye (25 µM) and 2 µl of viral RNA.\nThe following program was used: 15 minutes at 50° C., followed by 40 cycles (15 s 95° C.; 1 min 60° C.).\nReconstituted human respiratory epithelia of nasal origin and cultivated at the air-liquid interface (MucilAir® HAE, Epithelix) were infected with SARS-CoV-2 (MOI 0.1). The basal medium was treated once per day by the following molecules, in simple or combination treatment: • diltiazem (45 or 90 µM), • remdesivir (20 or 40 µM) and • berberine (4 µM) for 48 or 72 hours post-infection.\nAt various times, the epithelia were harvested and lysed. The total RNA was extracted and the viral genomes were quantified by RT-PCR by normalising the data using the quantification of the product of a cellular gene (GAPDH)."}, "SARS-CoV-2 virus [2]": {"system": "SARS-CoV-2 virus", "assay": "Vero E6 cells infected by SARS-CoV-2, viral infectious titre in culture supernatant", "format": "cell-based", "conditions": "monotherapy", "description": "The viral production relative to each of the concentrations of molecules has been determined and is shown with respect to the viral production from infected cells or HAE under the same conditions but untreated. The median inhibitory concentrations (IC50) were determined for each treatment condition.\nThe Vero E6 (ATCC CRL-1586) cells were cultivated in medium DMEM 4.5 g/l of glucose, supplemented by L-glutamine and penicillin/streptomycin and 10% inactivated foetal calf serum, at 37° C., 5% CO2.\nIn order to produce the infections, the cells were rinsed twice by the medium without serum and were covered by a minimum volume containing a dilution of virus, this dilution being determined from the infectious titre (cf. section on determination of the infectious titre), in order to obtain an adequate multiplicity of infection (MOI). After incubation for one hour in the presence of a minimum volume, the medium was replaced by the medium DMEM 4.5 g/l of glucose, supplemented by L-glutamine and penicillin/streptomycin and 2% inactivated foetal calf serum, and the cells were incubated again at 37° C., 5% CO2.\nThe determination of the infectious titre was performed using a limited dilution technique, on these Vero E6 cells on a 96-well plate. A volume of 50 µl of series dilutions was deposited in the wells in quadruplicates. The cells were then incubated at 37° C., 5% CO2 and the presence of cytopathic effects is then monitored after 3 days of infection. The infectious dose in tissue culture 50% (DICT50/ ml), i.e. the viral titre required to form an infection in 50% of inoculated cells, was calculated using the technique of Reed and Muench.\nVero E6 cells infected by SARS-CoV-2 (MOI 0.1) were treated at one hour post-infection by increasing concentrations of: • diltiazem (2.8 to 45 µM), • berberine (1.6 to 25 µM), and • remdesivir (0.6 to 10 µM), alone (FIG. 1) and in combination (FIG. 2).\nFor each of the combined treatments tested, a dose of one of the molecules was fixed and combined with increasing concentrations of the other molecule (same concentration ranges as those used in monotherapy, respectively) and vice versa. The viral infectious titres measured in the culture supernatants of the infected cells (sampled at 48 and 72 hours post-infection) reflect the level of viral replication measured under the various treatment conditions."}, "[3]": {"conditions": "cited from earlier work"}, "[4]": {"system": "SARS-CoV-2 (Wuhan-like strain)", "assay": "A549-ACE2 cells infected with SARS-CoV-2, viral titre in supernatant over time by RT-PCR", "format": "cell-based", "conditions": "A549-ACE2, MOI 10^-1 and 10^-2, single treatment 1 hpi, diltiazem 45 µM or remdesivir 5 µM, 24-96 hpi", "source_text": "The cells of the cell line A549 are human alveolar basal epithelial cells derived from adenocarcinoma. This cell line is used as a model for the study of lung cancer, but also as target cells for infectious viruses targeting the respiratory tract. These cells were subsequently modified to express the ACE2 receptor, via which the SARS-CoV-2 virus penetrates into the hosts cells. This cell line A549-ACE2 was obtained from Creative Biogene (USA).\nThe experimental protocol is the following: • Seeding of the A549-ACE2 cells, • 24 hours after infection of the A549-ACE2 cells with a Wuhan-like strain of SARS-CoV-2 (MOI 10^-1 and 10^-2), • 1 hour post infection (pi), the cells are treated with 45 uM diltiazem. • The supernatants are sampled at 24 hours, 48 hours, 72 hours and 96 hours after the infection for a viral quantification by RT-PCR.\nThe incubation media used are the following: • Seeding medium: DMEM 1 g/L glucose (Glc), 200 mM L-Glutamine (L-Glu), […] penicillin/streptomycin (P/S), 10% foetal calf serum (FCS) • Infection medium: DMEM 1 g/L Glc, 200 mM L-Glu, 104 U P/S, 0% FCS • Treatment medium: DMEM 1 g/L Glc, 200 mM L-Glu, 104 U P/S, 2% FCS"}, "[5]": {"system": "SARS-CoV-2 (Wuhan-like strain)", "assay": "IC50 of diltiazem on SARS-CoV-2 in A549-ACE2 cells, RT-PCR", "format": "cell-based", "conditions": "Severe acute respiratory syndrome coronavirus 2; A549-ACE2, MOI 10^-1, treated 1 hpi, 72 hours after infection", "description": "The experimental protocol is the following: • Seeding of the A549-ACE2 cells, • 24 hours after infection of A549-ACE2 cells with a Wuhan-like strain of SARS-CoV-2 (MOI 10^-1), • 1 hour post infection (pi), the cells are treated with diltiazem at different concentrations. • The supernatants are sampled at 72 hours after the infection for a viral quantification by RT-PCR.\nThe IC50 is the median inhibitory concentration, i.e. the quantity of diltiazem necessary to obtain 50% inhibition of the viral replication of the tested SARS-CoV-2 strain."}, "[6]": {"assay": "Cytotoxicity (CC50) on A549-ACE2 cells, MTS test", "format": "cell-based", "conditions": "human, 72 hours of treatment, read-out: CC50 (cytotoxic concentration 50%)", "description": "In parallel, the cytotoxicity of diltiazem on A549-ACE2 cells has been verified under the same experimental conditions. For this purpose, the CC50 (cytotoxic concentration 50%), which corresponds to the necessary dose of diltiazem in order to reduce the viability of the cells by half, was measured by monitoring the viability of the A549-ACE2 cells in the presence of various concentrations of diltiazem. The variability was determined by an MTS carried out 72 hours after the start of the treatment.\nThe MTS test is a colorimetric method: the method is based on the reduction of the compound MTS tetrazolium by viable cells in order to generate a coloured formazan product, enabling the counting of viable cells (coloured) […]."}, "coronavirus SARS-CoV-2": {"system": "coronavirus SARS-CoV-2", "format": "cell-based"}, "[7]": {"conditions": "MOI 0.1, 48 hpi, remdesivir 20 µM, diltiazem 90 µM, berberine 4 µM"}, "[8]": {"conditions": "MOI 0.1, 72 hpi, remdesivir 20 µM, diltiazem 90 µM"}, "[9]": {"conditions": "MOI 0.1, 72 hpi, remdesivir 40 µM, diltiazem 45 µM"}, "[10]": {"conditions": "Severe acute respiratory syndrome coronavirus 2, Vero C1008, Vero E6, MOI 0.01, 48 hpi, read-out: IC50"}, "[11]": {"conditions": "Severe acute respiratory syndrome coronavirus 2, Vero C1008, Vero E6, MOI 0.01, 72 hpi, read-out: IC50"}},
  "note": "Several values for one entry are separate records, joined by “and”; a condition that tells them apart may be missing. Equal entries are not always repeated. Where two headings read alike, the source gives them in different places.",
  "data": [
    {"smiles": "COc1ccc2cc3[n+](cc2c1OC)CCc1cc2c(cc1-3)OCO2", "note": "[Berberine, berberine]", "values": [
      {"measurement": "Reduction Relative viral production (%)", "setting": "SARS-CoV-2 virus [1]; [7]", "value": 86.37, "unit": "%"},
      {"measurement": "Reduction Relative viral production (-log10)", "setting": "SARS-CoV-2 virus [1]; [7]", "value": "0.86 -log10 and 0.8655 -log10"},
      {"measurement": "IC50", "setting": "SARS-CoV-2 virus [2]; Severe acute respiratory syndrome coronavirus 2, Vero C1008, Vero E6, MOI 0.01, 48 hpi", "value": 17.5, "unit": "µM"},
      {"measurement": "IC50", "setting": "SARS-CoV-2 virus [2]; Severe acute respiratory syndrome coronavirus 2, Vero C1008, Vero E6, MOI 0.01, 72 hpi", "value": "< 5.6", "unit": "µM"},
      {"measurement": "IC50", "setting": "SARS-CoV-2 virus [2]; Vero E6, MOI 0.01, 72 hpi, read-out: IC50", "value": "5.6 ± 1.7", "unit": "µM"},
      {"measurement": "bioavailability", "setting": "[3]", "value": "low"},
      {"measurement": "half-life", "setting": "[3]", "value": "~4", "unit": "h"}
    ]},
    {"smiles": "COc1ccc([C@@H]2Sc3ccccc3N(CCN(C)C)C(=O)[C@@H]2OC(C)=O)cc1.Cl", "note": "[Diltiazem, diltiazem]", "values": [
      {"measurement": "Inhibition of the viral titre in the supernatant over time (% of untreated)", "setting": "[4]", "value": "same level of inhibition of the viral titre"},
      {"measurement": "IC50", "setting": "[5]", "value": 19.7, "unit": "µM"},
      {"measurement": "Reduction Relative viral production (%)", "setting": "SARS-CoV-2 virus [1]; [7]", "value": 55.13, "unit": "%"},
      {"measurement": "Reduction Relative viral production (-log10)", "setting": "SARS-CoV-2 virus [1]; [7]", "value": "0.35 -log10 and 0.348 -log10"},
      {"measurement": "Reduction Relative viral production (%)", "setting": "SARS-CoV-2 virus [1]; [8]", "value": 29.37, "unit": "%"},
      {"measurement": "Reduction Relative viral production (-log10)", "setting": "SARS-CoV-2 virus [1]; [8]", "value": "0.15 -log10 and 0.151 -log10"},
      {"measurement": "Reduction Relative viral production (%)", "setting": "SARS-CoV-2 virus [1]; [9]", "value": 31.35, "unit": "%"},
      {"measurement": "Reduction Relative viral production (-log10)", "setting": "SARS-CoV-2 virus [1]; [9]", "value": "0.16 -log10 and 0.1634 -log10"},
      {"measurement": "IC50", "setting": "SARS-CoV-2 virus [2]; [10]", "value": "> 45", "unit": "µM"},
      {"measurement": "IC50", "setting": "SARS-CoV-2 virus [2]; [11]", "value": "> 45", "unit": "µM"},
      {"measurement": "CC50 at 72 h", "setting": "[6]", "value": 374, "unit": "µM"}
    ]},
    {"smiles": "CCC(CC)COC(=O)[C@H](C)N[P@](=O)(OC[C@H]1O[C@@](C#N)(c2ccc3c(N)ncnn23)[C@H](O)[C@@H]1O)Oc1ccccc1", "note": "[Remdesivir, remdesivir]", "values": [
      {"measurement": "Reduction Relative viral production (%)", "setting": "SARS-CoV-2 virus [1]; [7]", "value": 100, "unit": "%"},
      {"measurement": "Reduction Relative viral production (-log10)", "setting": "SARS-CoV-2 virus [1]; [7]", "value": "more than 7.75 -log10"},
      {"measurement": "Reduction Relative viral production (-log10)", "setting": "SARS-CoV-2 virus [1]; MOI 0.1, 48 hpi, remdesivir 20 µM, diltiazem 90 µM, berberine 4 µM, listed as remdesivir", "value": "7.351 -log10"},
      {"measurement": "Reduction Relative viral production (%)", "setting": "SARS-CoV-2 virus [1]; [8]", "value": 99.62, "unit": "%"},
      {"measurement": "Reduction Relative viral production (%)", "setting": "SARS-CoV-2 virus [1]; [9]", "value": 99.5, "unit": "%"},
      {"measurement": "Reduction Relative viral production (-log10)", "setting": "SARS-CoV-2 virus [1]; [9]", "value": "2.3 -log10 and 2.24 -log10"},
      {"measurement": "IC50", "setting": "SARS-CoV-2 virus [2]; [10]", "value": 0.98, "unit": "µM"},
      {"measurement": "IC50", "setting": "SARS-CoV-2 virus [2]; [11]", "value": 0.72, "unit": "µM"}
    ]},
    {"smiles": "O=c1cc(-c2ccc(O)cc2)oc2cc(O)cc(O)c12", "note": "[apigenin]", "values": [
      {"measurement": "Antiviral action against coronavirus SARS-CoV-2", "setting": "coronavirus SARS-CoV-2", "value": "does not have a significant antiviral action"}
    ]}
  ]
}
